Data on ten molecules can be found in ChEMBL document CHEMBL5550185, “Targeting hTERT Promoter G-Quadruplex DNA Structures with Small-Molecule Ligand to Downregulate hTERT Expression for Triple-Negative Breast Cancer Therapy” (J Med Chem, 2024).

One may read the IC50 as the midpoint of a concentration-inhibition curve.

For one data set, the system named is HepG2. As to the kind of experiment: Cytotoxicity against telomerase-positive human HepG2 cells assessed as inhibition of cell growth incubated for 48 hrs by MTT assay. As to conditions: HepG2, 48 h. The format is functional, cell-based. For orientation: Formazan colour is commonly taken as a measure of viable cells.
Another data set concerns PC-3. Kind of data set: Cytotoxicity against telomerase-positive human PC-3 cells assessed as inhibition of cell growth incubated for 48 hrs by MTT assay. As to conditions: PC-3, 48 h. The format is functional, cell-based.
The next data set has as its system HeLa. As to the kind of experiment: Cytotoxicity against telomerase-positive human HeLa cells assessed as inhibition of cell growth incubated for 48 hrs by MTT assay. The format is functional, cell-based.
The next data set has as its system A549. As to the kind of experiment: Cytotoxicity against telomerase-positive human A549 cells assessed as inhibition of cell growth incubated for 48 hrs by MTT assay. The format is functional, cell-based. As to conditions: A549, 48 h.
The subject of a further data set is MDA-MB-231. Kind of data set: Cytotoxicity against telomerase-positive human MDA-MB-231 cells assessed as inhibition of cell growth incubated for 48 hrs by MTT assay. The format is functional, cell-based. Particulars: MDA-MB-231, 48 h.
For another data set, the system named is U2OS. As to the kind of experiment: Cytotoxicity against alternative lengthening of telomere-positive human U2OS cells assessed as inhibition of cell growth incubated for 48 hrs by MTT assay. The format is functional, cell-based.
Data set [1] in a line: Cytotoxicity against human HK-2 cells assessed as inhibition of cell growth incubated for 48 hrs by MTT assay. The format is toxicity, cell-based.
Data set [2] in a line: Cytotoxicity against HUVEC cells assessed as inhibition of cell growth incubated for 48 hrs by MTT assay. The format is toxicity, cell-based. As to conditions: human.

In the case of `CCN(CC)CCCN1/C(=C/c2cc(/C=C/c3c[nH]c4ccccc34)[n+](C)c3ccccc23)Sc2ccccc21`, the IC50 with HepG2 is 4.7 µM; in the data set on PC-3, 5.4 µM; in the data set on HeLa, 1.9 µM; with A549, 2.3 µM; in the data set with MDA-MB-231 it was 2.1 µM; in the data set with U2OS, 9.4 µM. Moreover, the IC50 at 48 h in data set [1] is 4.6 µM; in data set [2], 14.5 µM.
Take `CC1CCN(CCCN2/C(=C/c3cc(/C=C/c4c[nH]c5ccccc45)[n+](C)c4ccccc34)Sc3ccccc32)CC1`: the IC50 with HepG2 amounted to 3.2 µM; in the data set with PC-3, 2.4 µM; in the data set with HeLa, 1.9 µM; with A549, 1.7 µM; in the data set with MDA-MB-231, 1.9 µM; in the data set with U2OS, 5.3 µM. Besides, the IC50 at 48 h came out at 5.5 µM in data set [1] and 6 µM in data set [2].
Regarding `C[n+]1c(/C=C/c2c[nH]c3ccccc23)cc(/C=C2\Sc3ccccc3N2CCCN2CCCCC2)c2ccccc21`, the IC50 was 4.5 µM in the data set on HepG2; 3.8 µM in the data set on PC-3; 1.8 µM with HeLa; 1.7 µM in the data set with A549; 3.1 µM in the data set on MDA-MB-231; 5.1 µM with U2OS. The IC50 at 48 h in data set [1] amounted to 5.4 µM; in data set [2] it was 11.9 µM.
With `CCN(CC)CCCN1/C(=C/c2cc(/C=C/c3cc4ccccc4[nH]3)[n+](C)c3ccccc23)Sc2ccccc21`, the IC50 with HepG2 worked out at 5.4 µM; in the data set on PC-3, 3.1 µM; in the data set with HeLa, 3.3 µM; in the data set with A549, 4.7 µM; in the data set with MDA-MB-231, 5.6 µM; in the data set on U2OS, 10.3 µM. Also, the results for the IC50 at 48 h in data set [1] and in data set [2] were 9.5 µM and 11.9 µM, respectively.
Regarding `CC(C)(C)OO` [TERT-BUTYL HYDROPEROXIDE], the 50% inhibitory concentration (IC50) with MDA-MB-231 turned out to be 549 µM.
With `C[n+]1c(/C=C/c2c[nH]c3ccccc23)cc(/C=C2\Sc3ccccc3N2CCCN2CCOCC2)c2ccccc21`, the half-maximal inhibitory concentration (IC50) in the data set with HepG2 is 5.8 µM; with PC-3, 4.7 µM; in the data set with HeLa, 2.3 µM; in the data set on A549, 2.1 µM; in the data set on MDA-MB-231, 2.9 µM; with U2OS, 7.8 µM. Moreover, the IC50 at 48 h in data set [1] was determined as 5.8 µM; in data set [2], 16.5 µM.
`C[n+]1c(/C=C/c2cc3ccccc3[nH]2)cc(/C=C2\Sc3ccccc3N2CCCN2CCC(C(F)(F)F)CC2)c2ccccc21`: the IC50 in the data set on HepG2 was found to be 4.7 µM; in the data set with PC-3, 3.9 µM; with HeLa it was 5.5 µM; in the data set on A549, 6.6 µM; with MDA-MB-231, 5.3 µM; in the data set on U2OS, 9.8 µM. For the same molecule, the IC50 at 48 h was 14.7 µM in data set [1] and 12 µM in data set [2].
Turning to `C[n+]1c(/C=C/c2cc3ccccc3[nH]2)cc(/C=C2\Sc3ccccc3N2CCCN2CCOCC2)c2ccccc21`, the IC50 stood at 5.2 µM with HepG2; 4.8 µM in the data set with PC-3; 4.1 µM in the data set on HeLa; 5 µM in the data set on A549; 6.4 µM in the data set with MDA-MB-231; 14.8 µM in the data set with U2OS. For the same molecule, the half-inhibitory concentration (IC50) at 48 h amounted to 9.5 µM in data set [1] and 16.6 µM in data set [2].
For `CC1CCN(CCCN2/C(=C/c3cc(/C=C/c4cc5ccccc5[nH]4)[n+](C)c4ccccc34)Sc3ccccc32)CC1`, the IC50 came to 5 µM with HepG2; 2.5 µM with PC-3; 3.1 µM in the data set with HeLa; 4.3 µM with A549; 2.6 µM with MDA-MB-231; 6.2 µM in the data set on U2OS. For the same molecule, the IC50 at 48 h in data set [1] was 6.3 µM; in data set [2] it was 8 µM.
On to `C[n+]1c(/C=C/c2cc3ccccc3[nH]2)cc(/C=C2\Sc3ccccc3N2CCCN2CCCCC2)c2ccccc21`, for which the IC50 with HepG2 turned out to be 4.5 µM; in the data set on PC-3 it was 3.3 µM; with HeLa, 3 µM; in the data set on A549, 3.6 µM; with MDA-MB-231, 3.3 µM; in the data set on U2OS it was 5 µM. Besides, the IC50 at 48 h in data set [1] was determined as 7.9 µM; in data set [2], 9.4 µM.
